Assay results as given in BindingDB's records for patent US20230339882 (Betta Pharmaceuticals, 2023).
pIC50: −log10 of the molar value.

What was measured:
[1] = target: T1, Tyrosine-protein phosphatase non-receptor type 11 (Homo sapiens, UniProt Q06124); assay: SHP2 Allosteric Inhibitory Enzyme Activity Assay
T1 sequence (Q06124 whole entry): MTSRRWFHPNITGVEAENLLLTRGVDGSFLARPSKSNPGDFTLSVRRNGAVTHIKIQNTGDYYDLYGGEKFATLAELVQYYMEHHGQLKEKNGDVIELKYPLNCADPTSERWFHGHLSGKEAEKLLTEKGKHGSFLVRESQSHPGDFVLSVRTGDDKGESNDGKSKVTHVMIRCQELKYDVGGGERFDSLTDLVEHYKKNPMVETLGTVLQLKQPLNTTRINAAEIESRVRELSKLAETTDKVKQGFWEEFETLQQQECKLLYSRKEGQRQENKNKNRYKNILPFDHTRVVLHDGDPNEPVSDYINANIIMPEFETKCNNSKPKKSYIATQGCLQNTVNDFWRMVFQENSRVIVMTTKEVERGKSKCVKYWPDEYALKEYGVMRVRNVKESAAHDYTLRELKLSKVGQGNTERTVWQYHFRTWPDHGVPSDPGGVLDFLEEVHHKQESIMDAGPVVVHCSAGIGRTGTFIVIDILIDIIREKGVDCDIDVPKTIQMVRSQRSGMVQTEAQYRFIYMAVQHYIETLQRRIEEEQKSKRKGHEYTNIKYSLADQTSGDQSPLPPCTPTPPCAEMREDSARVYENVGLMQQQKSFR
Excerpt: SHP2 is allosterically activated by binding of a bis-tyrosyl-phosphorylated peptide to its Src homology 2 (SH2) domain. This later activation step results in the release of the autoinhibitory interface of SHP2, which in turn activates the SHP2 protein tyrosine phosphatase (PTP) and is available for substrate recognition and reaction catalysis. The catalytic activity of SHP2 was monitored using the surrogate DiFMUP in a rapid fluorescence assay format.[0511]experiment procedure:(1) Compound preparation:The compounds of the present invention (10 mM stock solution) were diluted to appropriate times with 100% DMSO, and the final test concentrations of the compounds of the present invention were 10 µM, 3.3333 µM, 1.1111 µM, 0.3704 µM, 0.1235 µM, 0.0412 µM, 0.0137 µM, 0.0046 µM, 0.0015 µM, 0.00 µM;(2) Prepare the enzyme reaction working solution:Perform SHP2 enzymatic assays in 96-well black polystyrene plates (flat bottom, low flange, non-binding surface) (Perki Elmer, Cat#6005270) at room temperature using a final reaction volume of 50 µL and the following assay buffer conditions: 60 mM HEPES, 75 mM NaCl, 75 mM KCl, 0.05% BRIJ-35, 1 mM EDTA, 5 mM DTT.(3) Enzyme-catalyzed reaction and data monitoring:Add the compound of the present invention to the corresponding 96-well plate, and set the blank test well without compound and enzyme only with buffer. Thaw SHP2 Activating Peptide (IRS1_pY1172(dPEG8)pY1222) on ice, add 25 µM to each well, then add 0.2 ng of SHP2 protein sample to the corresponding well plate and incubate at room temperature for 1 hour. The surrogate substrate DiFMUP (Invitrogen, Cat #D6567) was added to the reaction and allowed to react for 1 hour at room temperature. Fluorescence signals were monitored using a microplate reader (Envision, Perki Elmer) using excitation and emission wavelengths of 340 nm and […], respectively.(4) Data analysis:Calculation Formula:Suppression rate %=1-Conversion_sample-Conversion_min/Conversion_max-Conversion_min×100%

[2] = target: Potassium voltage-gated channel subfamily H member 2 (Homo sapiens, UniProt Q12809); assay: Electrophysiological Stimulation Protocol
Excerpt: Measure the peak tail current.

Potassium voltage-gated channel subfamily H member 2, sequence (Q12809 whole entry): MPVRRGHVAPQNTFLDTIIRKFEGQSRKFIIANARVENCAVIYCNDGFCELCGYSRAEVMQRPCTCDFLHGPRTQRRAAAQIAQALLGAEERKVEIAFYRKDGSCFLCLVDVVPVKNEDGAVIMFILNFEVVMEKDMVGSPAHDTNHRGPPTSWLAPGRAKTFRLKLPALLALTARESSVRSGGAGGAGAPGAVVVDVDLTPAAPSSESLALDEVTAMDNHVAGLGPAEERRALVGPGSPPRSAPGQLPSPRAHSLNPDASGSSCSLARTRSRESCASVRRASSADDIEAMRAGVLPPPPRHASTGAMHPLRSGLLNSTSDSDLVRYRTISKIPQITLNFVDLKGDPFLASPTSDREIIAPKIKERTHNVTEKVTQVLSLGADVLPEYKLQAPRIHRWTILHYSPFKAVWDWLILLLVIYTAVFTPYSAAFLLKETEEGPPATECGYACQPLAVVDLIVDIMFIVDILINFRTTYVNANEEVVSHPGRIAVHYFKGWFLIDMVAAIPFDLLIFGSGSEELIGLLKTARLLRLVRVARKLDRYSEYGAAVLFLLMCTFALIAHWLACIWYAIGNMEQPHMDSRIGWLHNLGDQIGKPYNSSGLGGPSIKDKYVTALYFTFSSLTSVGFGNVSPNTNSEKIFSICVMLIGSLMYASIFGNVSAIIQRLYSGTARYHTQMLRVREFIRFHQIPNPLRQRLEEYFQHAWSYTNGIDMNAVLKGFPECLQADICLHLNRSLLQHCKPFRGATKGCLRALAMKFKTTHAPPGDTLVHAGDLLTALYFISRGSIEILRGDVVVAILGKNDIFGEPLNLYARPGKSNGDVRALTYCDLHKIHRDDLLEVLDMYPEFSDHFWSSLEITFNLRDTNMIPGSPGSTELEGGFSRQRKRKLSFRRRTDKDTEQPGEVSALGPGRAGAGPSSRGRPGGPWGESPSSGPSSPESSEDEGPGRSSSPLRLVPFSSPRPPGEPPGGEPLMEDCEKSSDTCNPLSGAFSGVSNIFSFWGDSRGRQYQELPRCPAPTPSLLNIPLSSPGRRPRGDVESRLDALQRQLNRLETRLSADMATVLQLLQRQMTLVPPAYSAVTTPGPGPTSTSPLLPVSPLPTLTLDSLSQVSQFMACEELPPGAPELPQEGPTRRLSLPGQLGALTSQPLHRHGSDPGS

SMILES	pIC50 [1]	pIC50 [2]
N[C@@H]1c2ccccc2CC12CCN(c1ncc(C#CCNc3ccc4c(c3)NC(=O)CC4)nc1CO)CC2 [US20230339882, Example A64]	8.59	
CNC(=O)c1ccc(OCC#Cc2cnc(N3CCC4(CC3)Cc3ccccc3[C@H]4N)c(CO)n2)cc1 [US20230339882, Example A72]	8.59	
CNC(=O)c1cccc(OCC#Cc2cnc(N3CCC4(CC3)Cc3ccccc3[C@H]4N)c(CO)n2)c1 [US20230339882, Example A35]	8.66	
CN(C)C(=O)c1cccc(OCC#Cc2cnc(N3CCC4(CC3)Cc3ccccc3[C@H]4N)c(CO)n2)c1 [US20230339882, Example A36]	8.14	
N[C@@H]1c2ccccc2CC12CCN(c1ncc(C#CCOc3ccc4ccc(=O)[nH]c4c3)nc1CO)CC2 [US20230339882, Example A24]	8.62	
N[C@@H]1c2ccccc2CC12CCN(c1ncc(C#CCOc3cccc(OC(F)(F)F)c3)nc1CO)CC2 [US20230339882, Example A15]	7.96	
N[C@@H]1c2ccccc2CC12CCN(c1ncc(C#CCOc3ccc4[nH]ncc4c3)nc1CO)CC2 [US20230339882, Example A67]	8.51	
N#Cc1ccc(OCC#Cc2cnc(N3CCC4(CC3)Cc3ccccc3[C@H]4N)c(CO)n2)cc1 [US20230339882, Example A12]	9.00	
COc1ccccc1OCC#Cc1cnc(N2CCC3(CC2)Cc2ccccc2[C@H]3N)c(CO)n1 [US20230339882, Example A10]	8.43	
N[C@@H]1c2ccccc2CC12CCN(c1ncc(C#CCOc3cccc(Cl)c3F)nc1CO)CC2 [US20230339882, Example A05]	8.31	
CC(O)c1ccc(OCC#Cc2cnc(N3CCC4(CC3)Cc3ccccc3[C@H]4N)c(CO)n2)cc1 (stereo not given in full) [US20230339882, Example A71]		< 4.70
CC(=O)Nc1cccc(OCC#Cc2cnc(N3CCC4(CC3)Cc3ccccc3[C@H]4N)n(C)c2=O)c1 [US20230339882, Example A34]	8.28	
N[C@@H]1c2ccccc2CC12CCN(c1ncc(C#CCOc3ccc(C(F)(F)F)nc3)nc1CO)CC2 [US20230339882, Example A63]	8.59	
CC(=O)c1cccc(OCC#Cc2cnc(N3CCC4(CC3)Cc3ccccc3[C@H]4N)c(CO)n2)c1 [US20230339882, Example A16]	8.62	
N[C@@H]1c2ccccc2CC12CCN(c1ncc(C#CCOc3ccc4c(c3)NC(=O)C4)nc1CO)CC2 [US20230339882, Example A25]	8.77	
